The values below come from patent US8680111B2 (Pfizer Inc., priority 2012, dated 2014).

In general, Ki refers to the equilibrium dissociation constant of an inhibitor or competing ligand from its target.

Experiment [1] concerns the target T1, human recombinant L1196M ALK kinase domain (amino acids 1093-1411) (Homo sapiens, UniProt Q9UM73, L1196M).
T1 construct: ALK kinase domain (amino acids 1093-1411); made in house
The experiment can be described thus: L1196M mutant ALK enzyme assay (microfluidic mobility shift). The note with it: ATP 60 μM, 0.5 nM enzyme, competitive inhibition fit; read-out: L1196M ALK enzyme assay (Ki). It counts as biochemical.

The target of experiment [2] is T2, human recombinant wild-type ALK kinase domain (amino acids 1093-1411) (Homo sapiens, UniProt Q9UM73).
T2 construct: ALK kinase domain (amino acids 1093-1411); made in house
Nature of the experiment: Wild-type ALK enzyme assay (microfluidic mobility shift). It counts as biochemical. The note with it: ATP 60 μM, competitive inhibition fit, read-out: WT ALK enzyme assay (Ki).
Method: The reactions were incubated for 1 h at room temperature, stopped by the addition of 0.1 M EDTA, pH 8, and the extent of reactions (˜15-20% conversion with no inhibitor) was determined after electrophoretic separation of the fluorescently labeled peptide substrate and phosphorylated product on an LabChip EZ Reader II (Caliper Life Sciences, Hopkinton, Mass.).

Regarding `CN1Cc2nn(C)c(C#N)c2-c2cnc(N)c(n2)O[C@@H](CF)c2cc(F)ccc2C1=O` [Example 94, (10R)-7-amino-12-fluoro-10-(fluoromethyl)-2,16-dimethyl-15-oxo-10,15,16,17-tetrahydro-2H-8,4-(azeno)pyrazolo[4,3-h][2,5,11]benzoxadiazacyclotetradecine-3-carbonitrile], the inhibition constant (Ki) came to 698 nM in experiment [1] and 930 nM in experiment [2].

Consider `COc1nn(C)c2c1-c1cnc(N)c(c1)OC(CF)c1cc(F)ccc1C(=O)N(C)C2` (single isomer, unassigned) [Example 87, 7-amino-12-fluoro-10-(fluoromethyl)-3-methoxy-1,16-dimethyl-16,17-dihydro-1H-8,4-(metheno)pyrazolo[4,3-h][2,5,11]benzoxadiazacyclotetradecin-15(10H)-one], for which the inhibition constant Ki in experiment [1] is 51 nM; in experiment [2], 270 nM.

On to `Cc1nn(S(=O)(=O)N(C)C)c2c1-c1cnc(N)c(c1)OCc1cc(F)ccc1OCCC2` [Example 44, 7-amino-12-fluoro-N,N,3-trimethyl-17,18-dihydro-10H-8,4-(metheno)-pyrazolo[3,4-e][1,12,9]benzodioxazacyclopentadecine-1(16H)-sulfonamide], for which the figures for the inhibitory constant (Ki) in experiment [1] and in experiment [2] were 70 nM and 12 nM, respectively.

As for `CC1Oc2cc(cnc2N)-c2c(nn(C)c2C2CC2)CN(C)C(=O)c2ccc(F)cc21` (single isomer, unassigned) [Example 16, 7-amino-3-cyclopropyl-12-fluoro-2,10,16-trimethyl-16,17-dihydro-2H-8,4-(metheno)pyrazolo[4,3-h][2,5,11]benzoxadiazacyclotetradecin-15(10H)-one], the Ki in experiment [1] is above 2270 nM; in experiment [2], 213 nM.

As for “7-amino-12-fluoro-3-methoxy-1,16,17-trimethyl-16,17-dihydro-1H-8,4-(azeno)pyrazolo[4,3-h][2,5,11]benzoxadiazacyclotetradecin-15(10H)-one [Example 126]”, the Ki turned out to be 1070 nM in experiment [1] and 540 nM in experiment [2].

As for `CC1Oc2cc(cnc2N)-c2c(C(C)(C)C)nn(C)c2CN(C)C(=O)c2ncccc21` (single isomer, unassigned) [Example 68, 7-amino-3-tert-butyl-1,10,16-trimethyl-16,17-dihydro-1H-8,4-(metheno)pyrazolo[4,3-g]pyrido[2,3-l][1,4,10]oxadiazacyclotetradecin-15(10H)-one], the figures for the inhibition constant (Ki) in experiment [1] and in experiment [2] were above 1500 nM and 207 nM, respectively.

Consider `C[C@H]1Oc2cc(cnc2N)-c2c(cnc3cccnc23)CN(C)C(=O)c2ccc(F)cc21` [Example 103, (11R)-8-amino-13-fluoro-11,17-dimethyl-17,18-dihydro-9,5-(metheno)-[1,5]naphthyridino[4,3-h][2,5,11]benzoxadiazacyclotetradecin-16(11H)-one], for which the Ki came out at 131 nM in experiment [1] and 9.1 nM in experiment [2].

As to `CC1Oc2cc(cnc2N)-c2c(cnn2C)CCCCCOc2ccc(F)cc21` (stereo not drawn) [Example 129, 12-fluoro-1,14-dimethyl-1,4,5,6,7,8-hexahydro-14H-16,20-(metheno)-pyrazolo-[4,3-g][1,14,11]benzodioxazacycloheptadecin-17-amine], the inhibition constant (Ki) is above 1500 nM in experiment [1] and 353 nM in experiment [2].

On to `CC1Oc2nc(cnc2N)-c2c(nn(C)c2C#N)CN(C)C(=O)c2ccc(F)cc21` (single isomer, unassigned) [Example 33, 7-amino-12-fluoro-2,10,16-trimethyl-15-oxo-10,15,16,17-tetrahydro-2H-8,4-(azeno)pyrazolo[4,3-h][2,5,11]benzoxadiazacyclotetradecine-3-carbonitrile], for which the results for the Ki in experiment [1] and in experiment [2] were above 2680 nM and 1010 nM, respectively.

As for `CC1Oc2cc(cnc2N)-c2c(cnn2C)CCCCCOc2ccc(F)cc21` (single isomer, unassigned) [Example 130, 12-fluoro-1,14-dimethyl-1,4,5,6,7,8-hexahydro-14H-16,20-(metheno)-pyrazolo-[4,3-g][1,14,11]benzodioxazacycloheptadecin-17-amine], the Ki in experiment [1] and in experiment [2] was above 3000 nM each time.

In the case of `CC1Oc2cc(cnc2N)-c2c(C(C)(C)C)nn(C)c2CN(C)C(=O)c2ncccc21` (stereo not drawn) [Example 67, 7-amino-3-tert-butyl-1,10,16-trimethyl-16,17-dihydro-1H-8,4-(metheno)pyrazolo[4,3-g]pyrido[2,3-l][1,4,10]oxadiazacyclotetradecin-15(10H)-one], the inhibition constant (Ki) is above 1500 nM in experiment [1] and 411 nM in experiment [2].

Consider `CN1Cc2nn(C)c(C#N)c2-c2cnc(N)c(c2)OC(CF)c2cc(F)ccc2C1=O` (single isomer, unassigned) [Example 84, 7-amino-12-fluoro-10-(fluoromethyl)-2,16-dimethyl-15-oxo-10,15,16,17-tetrahydro-2H-8,4-(metheno)pyrazolo[4,3-h][2,5,11]benzoxadiazacyclotetradecine-3-carbonitrile], for which the results for the Ki in experiment [1] and in experiment [2] were 90.2 nM and 29.3 nM, respectively.

On to `CC1Oc2cc(cnc2N)-c2c(C(C)(C)C)nn(C)c2CN(C)C(=O)c2ncccc21` (single isomer, unassigned) [Example 69, 7-amino-3-tert-butyl-1,10,16-trimethyl-16,17-dihydro-1H-8,4-(metheno)pyrazolo[4,3-g]pyrido[2,3-l][1,4,10]oxadiazacyclotetradecin-15(10H)-one], for which the Ki in experiment [1] and in experiment [2] was above 3000 nM in each case.

“7-amino-12-fluoro-3-methoxy-1,16,17-trimethyl-16,17-dihydro-1H-8,4-(azeno)pyrazolo[4,3-h][2,5,11]benzoxadiazacyclotetradecin-15(10H)-one [Example 128]”: the Ki in experiment [1] was determined as 386 nM; in experiment [2], 138 nM.

In the case of `CC1Oc2cc(cnc2N)-c2c(cnn2C)CCCCCOc2ccc(F)cc21` (single isomer, unassigned) [Example 131, 12-fluoro-1,14-dimethyl-1,4,5,6,7,8-hexahydro-14H-16,20-(metheno)-pyrazolo-[4,3-g][1,14,11]benzodioxazacycloheptadecin-17-amine], the inhibition constant Ki worked out at 794 nM in experiment [1] and 78.3 nM in experiment [2].

As to `CC1Oc2nc(cnc2N)-c2c(nn(C)c2C#N)COCc2ccc(F)cc21` (stereo not drawn) [Example 104, 7-amino-12-fluoro-2,10-dimethyl-2,10,15,17-tetrahydro-8,4-(azeno)pyrazolo[4,3-h][2,11,5]benzodioxazacyclotetradecine-3-carbonitrile], the inhibition constant Ki was 57.5 nM in experiment [1] and 8.4 nM in experiment [2].

Consider `Cn1ncc2c1-c1cnc(N)c(c1)OCc1cc(F)ccc1OCCCCC2` [Example 42, 12-fluoro-1-methyl-1,4,5,6,7,8-hexahydro-14H-16,20-(metheno) pyrazolo[4,3-g][1,14,11]benzodioxazacycloheptadecin-17-amine], for which the results for the inhibition constant (Ki) in experiment [1] and in experiment [2] were 2.89 nM and 500 nM, respectively.

On to `CC1Oc2cc(cnc2N)-c2c(nn(C)c2C#N)CN(C)C(=O)c2c(F)cccc21` (single isomer, unassigned) [Example 53, 7-amino-14-fluoro-2,10,16-trimethyl-15-oxo-10,15,16,17-tetrahydro-2H-8,4-(metheno)pyrazolo[4,3-h][2,5,11]benzoxadiazacyclotetradecine-3-carbonitrile], for which the inhibitory constant (Ki) in experiment [1] was 164 nM; in experiment [2], 25.8 nM.

Take `CC(C)Cn1nnc2c1-c1cnc(N)c(c1)O[C@H](C)c1cc(F)ccc1C(=O)N(C)C2` [Example 134, (10R)-7-amino-12-fluoro-10,16-dimethyl-3-(2-methylpropyl)-16,17-dihydro-3H-8,4-(metheno)[1,2,3]triazolo[4,5-h][2,5,11]benzoxadiazacyclotetradecin-15(10H)-one]: the inhibitory constant (Ki) came out at 20.5 nM in experiment [1] and 3 nM in experiment [2].

With `COc1c2c(nn1C)CN(C)C(=O)c1ccc(F)cc1C(C)Oc1cc-2cnc1N` (single isomer, unassigned) [Example 20, 7-amino-12-fluoro-3-methoxy-2,10,16-trimethyl-16,17-dihydro-2H-8,4-(metheno)pyrazolo[4,3-h][2,5,11]benzoxadiazacyclotetradecin-15(10H)-one], the inhibitory constant (Ki) is 450 nM in experiment [1] and 34 nM in experiment [2].

Regarding `CC1Oc2cc(cnc2N)-c2c(nn(C)c2C2CC2)CN(C)C(=O)c2ccc(F)cc21` (single isomer, unassigned) [Example 15, 7-amino-3-cyclopropyl-12-fluoro-2,10,16-trimethyl-16,17-dihydro-2H-8,4-(metheno)pyrazolo[4,3-h][2,5,11]benzoxadiazacyclotetradecin-15(10H)-one], the Ki in experiment [1] was 2.5 nM; in experiment [2] it was below 0.2 nM.

Take `CC1Oc2nc(cnc2N)-c2c(nn(C)c2C#N)COCc2ccc(F)cc21` (single isomer, unassigned) [Example 106, 7-amino-12-fluoro-2,10-dimethyl-2,10,15,17-tetrahydro-8,4-(azeno)pyrazolo[4,3-h][2,11,5]benzodioxazacyclotetradecine-3-carbonitrile]: the Ki in experiment [1] and in experiment [2] was above 3000 nM in each case.

`CCC1Oc2cc(cnc2N)-c2c(OC)nn(C)c2CN(C)C(=O)c2ccc(F)cc21` (single isomer, unassigned) [Example 24, 7-amino-10-ethyl-12-fluoro-3-methoxy-1,16-dimethyl-16,17-dihydro-1H-8,4-(metheno)pyrazolo[4,3-h][2,5,11]benzoxadiazacyclotetradecin-15(10H)-one]: the Ki in experiment [1] was 14 nM; in experiment [2], 4.6 nM.

For the compound `CCN1Cc2c(c(C)nn2C)-c2cnc(N)c(c2)OC(C)c2cc(F)ccc2C1=O` (single isomer, unassigned) [Example 10, 7-amino-16-ethyl-12-fluoro-1,3,10-trimethyl-16,17-dihydro-1H-8,4-(metheno)pyrazolo[4,3-h][2,5,11]benzoxadiazacyclotetradecin-15(10H)-one], the inhibition constant (Ki) in experiment [1] turned out to be 34 nM; in experiment [2], 13 nM.
